Where “and” joins values, the source holds several entries; their conditions need not be identical. Identical values can stand only once.
Columns and labels:
human GPR119 = molecular target: T1, human GPR119 (Homo sapiens, UniProt Q8TDV5); assay: β-Lactamase reporter functional assay (hGPR119 HEK293-CRE beta-lactamase cells); type: cell-based; design: host or cells: HEK293-CRE beta-lactamase; Emax: dose or concentration left out as unconfirmed; conditions: for EC50: hGPR119 HEK293-CRE beta-lactamase cells, 16 h incubation, each line a separate determination, read-out: Human B-lactamase Functional EC50; for Intrinsic Activity (Human B-lactamase) / Emax: percent of maximal activity relative to standard GPR119 agonist at 10 micromolar; for Emax: read-out: Intrinsic Activity (Human B-lactamase)
T1 sequence (Q8TDV5 1-335): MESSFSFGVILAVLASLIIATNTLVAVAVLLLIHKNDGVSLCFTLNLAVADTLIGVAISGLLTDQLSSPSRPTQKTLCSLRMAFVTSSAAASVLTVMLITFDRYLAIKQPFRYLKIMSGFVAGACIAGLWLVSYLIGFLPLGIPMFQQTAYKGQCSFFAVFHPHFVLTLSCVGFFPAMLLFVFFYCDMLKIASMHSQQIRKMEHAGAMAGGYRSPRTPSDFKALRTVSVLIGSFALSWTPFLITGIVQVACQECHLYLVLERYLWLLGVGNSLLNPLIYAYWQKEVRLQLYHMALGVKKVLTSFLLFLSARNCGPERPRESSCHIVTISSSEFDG
Description: The assay for GPR119 agonists utilizes a cell-based (hGPR119 HEK293-CRE beta-lactamase) reporter construct where agonist activation of human GPR119 is coupled to beta-lactamase production via a cyclic AMP response element (CRE). GPR119 activity is then measured utilizing a FRET-enabled beta-lactamase substrate, CCF4-AM (Live Blazer FRET-B/G Loading kit, Invitrogen cat #K1027). Specifically, hGPR119-HEK-CRE-beta-lactamase cells (Invitrogen 2.5×10^7/mL) were removed from liquid nitrogen storage, and diluted in plating medium (Dulbecco's modified Eagle medium high glucose (DMEM; Gibco Cat # 11995-065), 10% heat inactivated fetal bovine serum (HIFBS; Sigma Cat # F4135), 1×MEM Nonessential amino acids (Gibco Cat # 15630-080), 25 mM HEPES pH 7.0 (Gibco Cat # 15630-080), 200 nM potassium clavulanate (Sigma Cat # P3494). The cell concentration was adjusted using cell plating medium and 50 microL of this cell suspension ([…]) was added into each well of a black, clear bottom, poly-d-lysine coated 384-well plate (Greiner Bio-One cat# 781946) and incubated at 37 degrees Celsius in a humidified environment containing 5% carbon dioxide. After 4 hours the plating medium was removed and replaced with 40 microL of assay medium (Assay medium is plating medium without potassium clavulanate and HIFBS). Varying concentrations of each compound to be tested was then added in a volume of 10 microL (final DMSO ≦0.5%) and the cells were incubated for 16 hours at 37 degrees Celsius in a humidified environment containing 5% carbon dioxide. Plates were removed from the incubator and allowed to equilibrate to room temperature for approximately 15 minutes. 10 microL of 6×CCF4/AM working dye solution (prepared according to instructions in the Live Blazer FRET-B/G Loading kit, Invitrogen cat #K1027) was added per well and incubated at room temperature for 2 hours in the dark. Fluorescence was measured on an EnVision fluorimetric plate reader, excitation 405 nm, emission 460 nm/535 nm. EC50 determinations were made from agonist-response curves analyzed with a curve fitting program using a 4-parameter logistic dose-response equation.

male Wistar rats [1] = assay: Intraperitoneal glucose tolerance test (IPGTT); type: in vivo; conditions: rat, 20 mg/kg in 0.5% methylcellulose, IP glucose administered 30 minutes post dose
male Wistar rats [2] = assay: Intraperitoneal glucose tolerance test (IPGTT); type: in vivo; conditions: rat
Excerpt: All in vivo protocols were approved by the Pfizer's Animal Welfare Committee. Naive male Wistar rats (225-250 g body weight on receipt) were obtained from Harlan Laboratories (Indianapolis, Ind.), were pair housed in hanging plastic caging on Sani-chips sawdust bedding, and fed ad libitum on Purina 5001 chow. The rats were housed under a controlled light cycle (light from 6 am to 6 pm) at controlled temperature and humidity conditions. Rats were acclimated to the facility for at least 1 week prior to study.
Rats were assigned (n=8/group) to vehicle or one of three dose groups ([…]) according to body weight on day −0.1 to ensure that each group had equal group mean body weight values. The rats were fasted overnight in clean cages overnight (˜15 hours) prior to the intra-peritoneal glucose tolerance test. Body weights were recorded on the morning of the study (post fasting) for dose volume calculation. Blood samples were collected from all rats prior to dosing with vehicle (0.5% methylcellulose) or test compound via oral gavage (5 mL/kg). Sixty minutes later rats were bled and immediately dose with an IP dose of glucose (2 g/kg). The rats were re-bled at 15, 30, 60 and 120 minutes post-glucose load. Blood samples (˜250 μL/time point) were collected into EDTA tubes with aprotinin/DPPIVi (0.6 TIU/20 μL per mL whole blood), for the determination of plasma glucose, insulin, and total amide GLP-1 concentrations. Blood tubes were inverted several times immediately following collection and placed on ice, then spun at 14,000 rpm in a refrigerated centrifuge for 5 minutes. Plasma samples were analyzed for glucose levels using a Roche 912 clinical chemistry analyzer and plasma insulin concentrations were determined using the Alpco Ultra-Sensitive Insulin Rat Elisa.
The results are presented as mean+/−SEM (standard error of the mean) unless otherwise stated. Statistical evaluation of the data is carried out using one-way analysis of variance (ANOVA) with appropriate post-hoc analysis between vehicle and treatment group. Differences compared to vehicle with a P<0.05 were considered statistically significant using Dunnett's T-test.
IPGTT studies were performed with Example 3, either prepared as described above (dosed as a suspension in 0.5% methylcellulose) or prepared as an amorphous dispersion (25% active) with hydroxyproylmethylcellulose-acetate succinate (dosed as a suspension in 0.5% methylcellulose/0.1% polysorbate 80). […] Statistical significance is based on a comparison to the vehicle group.

[3] = 20 mg/kg SDD (amorphous dispersion 25% active with HPMC-acetate succinate)

| Structure (SMILES) | EC50 (human GPR119) | Intrinsic Activity (Human B-lactamase) (human GPR119) | Emax (human GPR119) | further results |
| --- | --- | --- | --- | --- |
| CC(C)OC(=O)N1CCC(Oc2cc(N3CCc4cc(C(=O)N(C)C)ccc43)ncn2)CC1 [Example 9, 4-[6-(5-Dimethylcarbamoyl-2,3-dihydroindol-1-yl)-pyrimidin-4-yloxy]-piperidine-1-carboxylic acid isopropyl ester] | 0.0373 µM and 0.0328 µM | 101% | 100% |  |
| CC(C)OC(=O)N1CCC(Oc2cc(N3CCc4cc(S(C)(=O)=O)ccc43)ncn2)CC1 [Example 3, Isopropyl 4-({6-[5-(methylsulfonyl)-2,3-dihydro-1H-indol-1-yl]pyrimidin-4-yl}oxy)piperidine-1-carboxylate] | 0.0126 µM and 0.0297 µM and 0.0138 µM and 0.0123 µM | 102% and 81.8% and 93.4% and 107% |  | Insulin AUC (0-60 min) (percent vehicle response) (male Wistar rats [1]): 104 percent vehicle response; Glucose 0-120 min AUC (percent vehicle response) (male Wistar rats [2]; [3]): ++89 percent vehicle response; Insulin AUC (0-60 min) (percent vehicle response) (male Wistar rats [2]; [3]): 118 percent vehicle response; Glucose 0-120 min AUC (percent vehicle response) (male Wistar rats [2]; 20 mg/kg in 0.5% methylcellulose, IP glucose administered 30 minutes post dose): ++85 percent vehicle response |
| CC(C)OC(=O)N1CCC(Oc2cc(N3CCc4cc(C#N)ccc43)ncn2)CC1 [Example 10, Isopropyl 4-{[6-(5-cyano-2,3-dihydro-1H-indol-1-yl)pyrimidin-4-yl]oxy}piperidine-1-carboxylate] | 0.0467 µM and 0.0372 µM | 85.8% | 90% |  |
| CC(C)OC(=O)N1CCC(Oc2cc(N3CCc4ncccc43)ncn2)CC1 [Example 12, Isopropyl 4-{[6-(2,3-dihydro-1H-pyrrolo[3,2-b]pyridin-1-yl)pyrimidin-4-yl]oxy}piperidine-1-carboxylate] | 2.1 µM and 2.16 µM | 121% | 110% |  |
| CC(C)OC(=O)N1C[C@H]2COC[C@@H](C1)[C@H]2Oc1cc(N2CCc3cc(S(C)(=O)=O)ccc32)ncn1 [Example 1, Isopropyl 9-anti-({6-[5-(methylsulfonyl)-2,3-dihydro-1H-indol-1-yl]pyrimidin-4-yl}oxy)-3-oxa-7-azabicyclo[3.3.1]nonane-7-carboxylate] | 0.0759 µM and 0.0723 µM | 109% | 107% |  |
| CC(C)OC(=O)N1CCC(Oc2ncnc(N3CCc4cc(S(C)(=O)=O)ccc43)c2C#N)CC1 [Example 6, Isopropyl 4-({5-cyano-6-[5-(methylsulfonyl)-2,3-dihydro-1H-indol-1-yl]pyrimidin-4-yl}oxy)piperidine-1-carboxylate] | 0.0078 µM and 0.00645 µM | 103% | 99.9% |  |
| CC(C)(C)OC(=O)N1CCC(Oc2cc(N3CCc4cc(S(C)(=O)=O)ccc43)ncn2)C(F)C1 (racemic) [Example 15, tert-Butyl 3-fluoro-4-({6-[5-(methylsulfonyl)-2,3-dihydro-1H-indol-1-yl]pyrimidin-4-yl}oxy)piperidine-1-carboxylate] | 0.0072 µM and 0.00409 µM and 0.00282 µM | 113% and 112% | 107% |  |
| Cc1c(O[C@H]2CCN(C(=O)OC3(C)CC3)C[C@H]2F)ncnc1N1CCc2ncccc21 [Example 17, 1-Methylcyclopropyl (3R,4S)-4-{[6-(2,3-dihydro-1H-pyrrolo[3,2-b]pyridin-1-yl)-5-methylpyrimidin-4-yl]oxy}-3-fluoropiperidine-1-carboxylate] |  |  |  | Insulin 0-60 min AUC (percent vehicle response) (male Wistar rats [2]; 1 mg/kg oral): 126 percent vehicle response; Total Amide GLP-1 0-120 min AUC (percent vehicle response) (male Wistar rats [2]; 1 mg/kg oral): 235 percent vehicle response; Glucose 0-120 min AUC (percent vehicle response) (male Wistar rats [2]; 1 mg/kg oral, 60 min before IP glucose 2 g/kg): 88 percent vehicle response; Insulin 0-60 min AUC (percent vehicle response) (male Wistar rats [2]; 10 mg/kg oral): ++162 percent vehicle response; Total Amide GLP-1 0-120 min AUC (percent vehicle response) (male Wistar rats [2]; 10 mg/kg oral): 237 percent vehicle response; Glucose 0-120 min AUC (percent vehicle response) (male Wistar rats [2]; 10 mg/kg oral, 60 min before IP glucose 2 g/kg): ++69 percent vehicle response |
| Cc1c(O[C@@H]2[C@@H]3COC[C@H]2CN(C(=O)OC(C)C)C3)ncnc1N1CCc2cc(S(C)(=O)=O)ccc21 [Example 23, Isopropyl (9-syn)-9-({5-methyl-6-[5-(methylsulfonyl)-2,3-dihydro-1H-indol-1-yl]pyrimidin-4-yl}oxy)-3-oxa-7-azabicyclo[3.3.1]nonane-7-carboxylate] |  |  | 97.9% |  |
| Cc1c(OC2CCN(C(=O)OC(C)C)CC2)ncnc1N1CCc2cc(S(C)(=O)=O)ccc21 [Example 8, Isopropyl 4-({5-methyl-6-[5-(methylsulfonyl)-2,3-dihydro-1H-indol-1-yl]pyrimidin-4-yl}oxy)piperidine-1-carboxylate] | 0.0435 µM and 0.0574 µM | 99.2% | 100% |  |
| CC(C)OC(=O)N1CCC(Oc2cc(N3CCc4cc(S(=O)(=O)CCO)ccc43)ncn2)CC1 [Example 11, Isopropyl 4-[(6-{5-[(2-hydroxyethyl)sulfonyl]-2,3-dihydro-1H-indol-1-yl}pyrimidin-4-yl)oxy]piperidine-1-carboxylate] | 0.0407 µM |  | 103% |  |
| Cc1c(OC2CCN(C(=O)OC(C)C)CC2)ncnc1N1CCc2ncccc21 [Example 13, Isopropyl 4-{[6-(2,3-dihydro-1H-pyrrolo[3,2-b]pyridin-1-yl)-5-methylpyrimidin-4-yl]oxy}-piperidine-1-carboxylate] | 0.236 µM and 0.203 µM | 97.8% | 92.6% |  |
